The nature of data set [1]: Cytotoxicity against mouse B16-F1 cells after 48 hrs by sulforhodamine B assay. It is filed as functional, cell-based. To be noted: Mus musculus, B16-F1, 48 h.
For a further data set, the system named is PC-3. In words: cells. To be noted: Homo sapiens, PC-3, 48 h.
In another data set the test system is DU-145. In words: cells. To be noted: Homo sapiens, DU-145, 48 h.
Another data set concerns LNCaP. Put plainly: Cytotoxicity against human LNCAP cells after 48 hrs by sulforhodamine B assay. It is filed as functional, cell-based.
Data set [2] can be described thus: Cytotoxicity against human WM164 cells after 48 hrs by sulforhodamine B assay. It is filed as functional, cell-based. The following applies: Homo sapiens, WM164, 48 h.
The next data set has as its system A-375. Put plainly: Cytotoxicity against human A375 cells after 48 hrs by sulforhodamine B assay. It is filed as functional, cell-based. The following applies: Homo sapiens, A-375, 48 h.
Data set [3] is described as follows: Cytotoxicity against human multidrug-resistant MDA-MB-435/LCCMDR1 cells after 48 hrs by sulforhodamine B assay. It is filed as functional, cell-based. To be noted: MDA-MB-435, 48 h.
A further data set relates to PPC-1. In words: Cytotoxicity against human PPC1 cells after 48 hrs by sulforhodamine B assay. It is filed as functional, cell-based. The following applies: Homo sapiens, PPC-1, 48 h.
The test system of a further data set is MDA-MB-435. Put plainly: cells. The following applies: Homo sapiens, MDA-MB-435, 48 h.
Data set [4] has as its system Mus musculus. Put plainly: Toxicity in mouse B16-F1 cells xenografted C57/BL mouse assessed as reduction of body weight at 30 mg/kg, ip administered 7 days after tumor inoculation qd for 14 days. To be noted: in vivo. On the set-up: dose 30 mg/kg, route intraperitoneal. It is filed as organism-based.
In data set [5] the test system is Mus musculus. Put plainly: Toxicity in mouse B16-F1 cells xenografted C57/BL mouse assessed as reduction of body weight at 10 mg/kg, ip administered 7 days after tumor inoculation qd for 14 days. It is filed as organism-based. Further details: dose 10 mg/kg, route intraperitoneal. To be noted: in vivo.
Data set [6] in a line: Aqueous solubility of the compound in water after 24 hrs by shake-flask method. It is filed as physicochemical.
Data set [7] in a line: Aqueous solubility of the compound in buffer at pH 7 after 24 hrs by shake-flask method. It is filed as physicochemical.
A short description of data set [8]: Antitumor activity against mouse B16-F1 cells xenografted in C57/BL mouse assessed as reduction of tumor growth at 60 mg/kg, ip administered 7 days after tumor inoculation qd for 14 days. It is filed as functional. On the set-up: scale not given: the % may be the effect or the level left. To be noted: route intraperitoneal.
The test system of data set [9] is Mus musculus. In words: Toxicity in mouse B16-F1 cells xenografted C57/BL mouse assessed as reduction of body weight at 60 mg/kg, ip administered 7 days after tumor inoculation qd for 14 days. It is filed as organism-based. Further details: dose 60 mg/kg, route intraperitoneal. To be noted: in vivo.

Converted amounts (≈) assume the structure as drawn.

Description for DU-145: Cytotoxicity against human DU145 cells after 48 hrs by sulforhodamine B assay
Description for MDA-MB-435: Cytotoxicity against human MDA-MB-435 cells after 48 hrs by sulforhodamine B assay
Description for PC-3: Cytotoxicity against human PC3 cells after 48 hrs by sulforhodamine B assay

For the molecule `COc1ccc(-c2ncc(C(=O)c3ccc(F)cc3)n2S(=O)(=O)c2ccccc2)cc1`, the IC50 in data set [1] stood at 0.071 µM; in the data set with PC-3 it was 0.033 µM; in the data set on DU-145, 0.052 µM; in the data set with LNCaP it was 0.031 µM; in data set [2], 0.043 µM; in the data set with A-375, 0.036 µM. Also, the 50% inhibitory concentration (IC50) in data set [3] stood at 0.038 µM; with PPC-1, 0.032 µM; in the data set with MDA-MB-435, 0.03 µM.
Regarding `COc1ccc(-c2nc(C(=O)c3ccc(F)cc3)c[nH]2)cc1`, the Activity result in the data set on Mus musculus [4] and in the data set on Mus musculus [5] was “Non-toxic” each time. Further, half-maximal inhibition with MDA-MB-435 (IC50) was put at 0.03 µM.
In the case of `CN(C)c1ccc(-c2ncc(C(=O)c3ccc(F)cc3)n2S(=O)(=O)c2ccccc2)cc1`, the half-maximal inhibitory concentration (IC50) in data set [1] was found to be 0.242 µM; in the data set with PC-3, 0.083 µM; in the data set with DU-145, 0.074 µM; in the data set with LNCaP, 0.056 µM; in data set [2] it was 0.056 µM; in the data set with A-375 it was 0.055 µM. The molecule also came in with a 50% inhibitory concentration (IC50) with PPC-1 of 0.048 µM.
Turning to `COc1ccc(-c2ncc(C(=O)c3ccc(F)cc3)n2S(=O)(=O)c2ccccc2)cc1OC`, the IC50 turned out to be 2 µM in data set [1]; 10 µM in the data set with PC-3; 3.31 µM in the data set with DU-145; 1.92 µM in the data set with LNCaP; 1.4 µM in data set [2]; 0.96 µM with A-375. The molecule also gave an IC50 with PPC-1 of 1.44 µM.
`COc1cc(C(=O)c2cnc(-c3ccccc3C(F)(F)F)n2S(=O)(=O)c2ccccc2)cc(OC)c1OC`: the IC50 (in [1]; in the data set on PC-3; in the data set with DU-145; with LNCaP; in [2]; in the data set with A-375) was more than 10 µM each time. Moreover, the IC50 with PPC-1 was more than 10 µM.
`O=C(c1ccc(F)cc1)c1cnc(-c2ccccc2C(F)(F)F)n1S(=O)(=O)c1ccccc1`: the IC50 (in [1]; in the data set with PC-3; in the data set on DU-145; in the data set on LNCaP; in [2]; in the data set with A-375) was more than 10 µM throughout. Besides, the IC50 in the data set with PPC-1 is more than 10 µM.
Regarding `O=C(c1ccc(F)cc1)c1cnc(-c2ccc(OCc3ccccc3)cc2)n1S(=O)(=O)c1ccccc1`, the IC50 in data set [1] amounted to 0.11 µM; with PC-3, 0.075 µM; in the data set on DU-145 it was 0.058 µM; with LNCaP it was 0.035 µM; in [2], 0.048 µM; with A-375 it was 0.064 µM. This molecule registered an IC50 with PPC-1 of 0.038 µM.
As to `COc1cc(C(=O)c2csc(-c3ccc(N(C)C)cc3)n2)cc(OC)c1OC`, the solubility (thermodynamic) at 24 h is 0.833 µg/mL (≈ 2.09 µM) in data set [6] and 0.909 µg/mL (≈ 2.28 µM) in data set [7].
On to `COc1cc(C(=O)c2c[nH]c(-c3ccc(N(C)C)cc3)n2)cc(OC)c1OC`, for which the IC50 in data set [1] turned out to be 0.361 µM; in the data set with PC-3, 0.092 µM; in the data set on DU-145, 0.095 µM; with LNCaP it was 0.058 µM; in data set [2], 0.08 µM; with A-375, 0.082 µM. The molecule also registered an IC50 in the data set with PPC-1 of 0.067 µM. The figures for the solubility (thermodynamic) at 24 h in data set [6] and in [7] were 11.3 µg/mL (≈ 29.6 µM) and 48.9 µg/mL (≈ 128 µM), respectively.
Take `COc1ccc(/C=C\c2cc(OC)c(OC)c(OC)c2)cc1O` [COMBRETASTATIN A4]: the thermodynamic solubility at 24 h worked out at 2.83 µg/mL (≈ 8.95 µM) in data set [6] and 1.04 µg/mL (≈ 3.29 µM) in [7].
With `CN(C)/N=N/c1[nH]cnc1C(N)=O` [DACARBAZINE], the Activity in data set [8] is recorded as 51%; with Mus musculus [9] it was “Non-toxic”.
For the molecule `CC(=O)O[C@H]1C(=O)[C@@]2(C)[C@H]([C@H](OC(=O)c3ccccc3)[C@]3(O)C[C@H](OC(=O)[C@H](O)[C@@H](NC(=O)c4ccccc4)c4ccccc4)C(C)=C1C3(C)C)[C@]1(OC(C)=O)CO[C@@H]1C[C@@H]2O` [PACLITAXEL], the thermodynamic solubility at 24 h in data set [6] was 0.021 µg/mL (≈ 0.0246 µM); in [7], 0.137 µg/mL (≈ 0.16 µM).
